Results: patent US9006250B2, “4-amino-6-(heterocyclic)picolinates and 6-amino-2-(heterocyclic)pyrimidine-4-carboxylates and their use as herbicides” (Dow AgroSciences, LLC, priority 2013, dated 2015)
Each block holds one compound with its values, some of them ahead of it.

How the values were obtained:
[1] = test system: TRZAS: wheat, spring (Triticum aestivum); test: Post-Emergent Test II herbicidal activity; type: in vivo; conditions: post-emergence, 336 h, 14 days, read-out: Visual Growth Reduction (%) 14 Days After Application TRZAS; for pest or weed control at 35 g/ha: 35 g ai/ha; for pest or weed control at 70 g/ha: 70 g ai/ha; for pest or weed control at 140 g/ha: 140 g ai/ha
Outline: (§1)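 Seedlings raised 7-21 d under greenhouse conditions were treated at the first or second true leaf stage. Compounds, formulated with crop oil concentrate and surfactant, were applied overhead at 187 L/ha across a serial dilution series, with solvent-blank controls. Percent visual injury was scored after 14 d.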

[2] = test system: ORYSA: rice (Oryza sativa); test: Post-Emergent Test II herbicidal activity; type: in vivo; conditions: post-emergence, 336 h, 14 days, read-out: Visual Growth Reduction (%) 14 Days After Application ORYSA; for pest or weed control at 35 g/ha: 35 g ai/ha; for pest or weed control at 70 g/ha: 70 g ai/ha; for pest or weed control at 140 g/ha: 140 g ai/ha
Outline: as §1

[3] = test system: SETFA: giant foxtail (Setaria faberi); test: Post-Emergent Test II herbicidal activity; type: in vivo; conditions: post-emergence, 336 h, 14 days, read-out: Visual Growth Reduction (%) 14 Days After Application SETFA; for pest or weed control at 35 g/ha: 35 g ai/ha; for pest or weed control at 70 g/ha: 70 g ai/ha; for pest or weed control at 140 g/ha: 140 g ai/ha
Outline: as §1

[4] = test system: CHEAL: lambsquarters (Chenopodium album); test: Post-Emergent Test II herbicidal activity; type: in vivo; conditions: post-emergence, 336 h, 14 days, read-out: Visual Growth Reduction (%) 14 Days After Application CHEAL; for pest or weed control at 35 g/ha: 35 g ai/ha; for pest or weed control at 70 g/ha: 70 g ai/ha; for pest or weed control at 140 g/ha: 140 g ai/ha
Outline: as §1

[5] = test system: CYPES: yellow nutsedge (Cyperus esculentus); test: Post-Emergent Test II herbicidal activity; type: in vivo; conditions: post-emergence, 336 h, 14 days, read-out: Visual Growth Reduction (%) 14 Days After Application CYPES; for pest or weed control at 35 g/ha: 35 g ai/ha; for pest or weed control at 70 g/ha: 70 g ai/ha; for pest or weed control at 140 g/ha: 140 g ai/ha
Outline: as §1

[6] = test system: ZEAMX: maize, corn (Zea mays); test: Post-Emergent Test II herbicidal activity; type: in vivo; conditions: post-emergence, 336 h, 14 days, read-out: Visual Growth Reduction (%) 14 Days After Application ZEAMX; for pest or weed control at 35 g/ha: 35 g ai/ha; for pest or weed control at 70 g/ha: 70 g ai/ha; for pest or weed control at 140 g/ha: 140 g ai/ha
Outline: as §1

[7] = test system: EPHHL: wild poinsettia (Euphorbia heterophylla); test: Post-Emergent Test II herbicidal activity; type: in vivo; conditions: post-emergence, 336 h, 14 days, read-out: Visual Growth Reduction (%) 14 Days After Application EPHHL; for pest or weed control at 35 g/ha: 35 g ai/ha; for pest or weed control at 70 g/ha: 70 g ai/ha; for pest or weed control at 140 g/ha: 140 g ai/ha
Outline: as §1

[8] = test system: AMARE: redroot pigweed (Amaranthus retroflexus); test: Post-Emergent Test II herbicidal activity; type: in vivo; conditions: post-emergence, 336 h, 14 days, read-out: Visual Growth Reduction (%) 14 Days After Application AMARE; for pest or weed control at 35 g/ha: 35 g ai/ha; for pest or weed control at 70 g/ha: 70 g ai/ha; for pest or weed control at 140 g/ha: 140 g ai/ha
Outline: as §1

[9] = test system: ABUTH: velvetleaf (Abutilon theophrasti); test: Post-Emergent Test II herbicidal activity; type: in vivo; conditions: post-emergence, 336 h, 14 days, read-out: Visual Growth Reduction (%) 14 Days After Application ABUTH; for pest or weed control at 35 g/ha: 35 g ai/ha; for pest or weed control at 70 g/ha: 70 g ai/ha; for pest or weed control at 140 g/ha: 140 g ai/ha
Outline: as §1

[10] = test system: BRSNN: oilseed rape, canola (Brassica napus); test: Post-Emergent Test II herbicidal activity; type: in vivo; conditions: post-emergence, 336 h, 14 days, read-out: Visual Growth Reduction (%) 14 Days After Application BRSNN; for pest or weed control at 35 g/ha: 35 g ai/ha; for pest or weed control at 70 g/ha: 70 g ai/ha; for pest or weed control at 140 g/ha: 140 g ai/ha
Outline: as §1

[11] = test system: HELAN: sunflower (Helianthus annuus); test: Post-Emergent Test II herbicidal activity; type: in vivo; conditions: post-emergence, 336 h, 14 days, read-out: Visual Growth Reduction (%) 14 Days After Application HELAN; for pest or weed control at 35 g/ha: 35 g ai/ha; for pest or weed control at 70 g/ha: 70 g ai/ha; for pest or weed control at 140 g/ha: 140 g ai/ha
Outline: as §1

[12] = test system: ECHCG: barnyardgrass (Echinochloa crus-galli); test: Post-Emergent Test II herbicidal activity; type: in vivo; conditions: post-emergence, 336 h, 14 days, read-out: Visual Growth Reduction (%) 14 Days After Application ECHCG; for pest or weed control at 35 g/ha: 35 g ai/ha; for pest or weed control at 70 g/ha: 70 g ai/ha; for pest or weed control at 140 g/ha: 140 g ai/ha
Outline: as §1

melting point: 218 to 220 °C
SMILES: COC(=O)c1nc(-c2cc3nsnc3cc2F)cc(N)c1Cl [Compound 13]
pest or weed control at 35 g/ha [1]: 0 to 29%
pest or weed control at 70 g/ha [1]: 0 to 29%
pest or weed control at 140 g/ha [1]: 0 to 29%
pest or weed control at 35 g/ha [2]: 0 to 29%
pest or weed control at 70 g/ha [2]: 30 to 44%
pest or weed control at 140 g/ha [2]: 30 to 44%
pest or weed control at 35 g/ha [3]: 60 to 74%
pest or weed control at 70 g/ha [3]: 60 to 74%
pest or weed control at 140 g/ha [3]: 85 to 94%
pest or weed control at 35 g/ha [4]: 85 to 94%
pest or weed control at 70 g/ha [4]: 95 to 100%
pest or weed control at 140 g/ha [4]: 95 to 100%
pest or weed control at 35 g/ha [5]: 0 to 29%
pest or weed control at 70 g/ha [5]: 0 to 29%
pest or weed control at 140 g/ha [5]: 30 to 44%
pest or weed control at 35 g/ha [6]: 60 to 74%
pest or weed control at 70 g/ha [6]: 75 to 84%
pest or weed control at 140 g/ha [6]: 85 to 94%
pest or weed control at 35 g/ha [7]: 95 to 100%
pest or weed control at 70 g/ha [7]: 95 to 100%
pest or weed control at 140 g/ha [7]: 95 to 100%
pest or weed control at 35 g/ha [8]: 95 to 100%
pest or weed control at 70 g/ha [8]: 95 to 100%
pest or weed control at 140 g/ha [8]: 95 to 100%
pest or weed control at 35 g/ha [9]: 75 to 84%
pest or weed control at 70 g/ha [9]: 85 to 94%
pest or weed control at 140 g/ha [9]: 85 to 94%
pest or weed control at 35 g/ha [10]: 95 to 100%
pest or weed control at 70 g/ha [10]: 95 to 100%
pest or weed control at 140 g/ha [10]: 95 to 100%
pest or weed control at 35 g/ha [11]: 30 to 44%
pest or weed control at 70 g/ha [11]: 60 to 74%
pest or weed control at 140 g/ha [11]: 75 to 84%
pest or weed control at 35 g/ha [12]: 75 to 84%
pest or weed control at 70 g/ha [12]: 85 to 94%
pest or weed control at 140 g/ha [12]: 85 to 94%

melting point: 182 to 185 °C
SMILES: COC(=O)c1nc(-c2ccc3nonc3c2C)cc(N)c1Cl [Compound 17]
pest or weed control at 35 g/ha [1]: 0 to 29%
pest or weed control at 70 g/ha [1]: 0 to 29%
pest or weed control at 140 g/ha [1]: 30 to 44%
pest or weed control at 35 g/ha [2]: 0 to 29%
pest or weed control at 70 g/ha [2]: 0 to 29%
pest or weed control at 140 g/ha [2]: 0 to 29%
pest or weed control at 35 g/ha [3]: 0 to 29%
pest or weed control at 70 g/ha [3]: 0 to 29%
pest or weed control at 140 g/ha [3]: 0 to 29%
pest or weed control at 35 g/ha [4]: 85 to 94%
pest or weed control at 70 g/ha [4]: 95 to 100%
pest or weed control at 140 g/ha [4]: 95 to 100%
pest or weed control at 35 g/ha [5]: 60 to 74%
pest or weed control at 70 g/ha [5]: 60 to 74%
pest or weed control at 140 g/ha [5]: 75 to 84%
pest or weed control at 35 g/ha [6]: 0 to 29%
pest or weed control at 70 g/ha [6]: 0 to 29%
pest or weed control at 140 g/ha [6]: 0 to 29%
pest or weed control at 35 g/ha [7]: 0 to 29%
pest or weed control at 70 g/ha [7]: 0 to 29%
pest or weed control at 140 g/ha [7]: 0 to 29%
pest or weed control at 35 g/ha [8]: 95 to 100%
pest or weed control at 70 g/ha [8]: 95 to 100%
pest or weed control at 140 g/ha [8]: 95 to 100%
pest or weed control at 35 g/ha [9]: 0 to 29%
pest or weed control at 70 g/ha [9]: 45 to 59%
pest or weed control at 140 g/ha [9]: 60 to 74%
pest or weed control at 35 g/ha [10]: 60 to 74%
pest or weed control at 70 g/ha [10]: 75 to 84%
pest or weed control at 140 g/ha [10]: 85 to 94%
pest or weed control at 35 g/ha [11]: 0 to 29%
pest or weed control at 70 g/ha [11]: 45 to 59%
pest or weed control at 140 g/ha [11]: 60 to 74%
pest or weed control at 35 g/ha [12]: 0 to 29%
pest or weed control at 70 g/ha [12]: 0 to 29%
pest or weed control at 140 g/ha [12]: 0 to 29%
